Nine compounds from paper PMC11025159 (Journal of Translational Medicine, 2024) can be followed below.

Each structure is given as a SMILES string. pIC50: −log10 of the molar value.

Experiment [1] concerns the target T1, JAK3 (Homo sapiens, UniProt P52333).
T1 construct: purchased Promega Corporation V3701
T1 sequence (P52333 1-1124): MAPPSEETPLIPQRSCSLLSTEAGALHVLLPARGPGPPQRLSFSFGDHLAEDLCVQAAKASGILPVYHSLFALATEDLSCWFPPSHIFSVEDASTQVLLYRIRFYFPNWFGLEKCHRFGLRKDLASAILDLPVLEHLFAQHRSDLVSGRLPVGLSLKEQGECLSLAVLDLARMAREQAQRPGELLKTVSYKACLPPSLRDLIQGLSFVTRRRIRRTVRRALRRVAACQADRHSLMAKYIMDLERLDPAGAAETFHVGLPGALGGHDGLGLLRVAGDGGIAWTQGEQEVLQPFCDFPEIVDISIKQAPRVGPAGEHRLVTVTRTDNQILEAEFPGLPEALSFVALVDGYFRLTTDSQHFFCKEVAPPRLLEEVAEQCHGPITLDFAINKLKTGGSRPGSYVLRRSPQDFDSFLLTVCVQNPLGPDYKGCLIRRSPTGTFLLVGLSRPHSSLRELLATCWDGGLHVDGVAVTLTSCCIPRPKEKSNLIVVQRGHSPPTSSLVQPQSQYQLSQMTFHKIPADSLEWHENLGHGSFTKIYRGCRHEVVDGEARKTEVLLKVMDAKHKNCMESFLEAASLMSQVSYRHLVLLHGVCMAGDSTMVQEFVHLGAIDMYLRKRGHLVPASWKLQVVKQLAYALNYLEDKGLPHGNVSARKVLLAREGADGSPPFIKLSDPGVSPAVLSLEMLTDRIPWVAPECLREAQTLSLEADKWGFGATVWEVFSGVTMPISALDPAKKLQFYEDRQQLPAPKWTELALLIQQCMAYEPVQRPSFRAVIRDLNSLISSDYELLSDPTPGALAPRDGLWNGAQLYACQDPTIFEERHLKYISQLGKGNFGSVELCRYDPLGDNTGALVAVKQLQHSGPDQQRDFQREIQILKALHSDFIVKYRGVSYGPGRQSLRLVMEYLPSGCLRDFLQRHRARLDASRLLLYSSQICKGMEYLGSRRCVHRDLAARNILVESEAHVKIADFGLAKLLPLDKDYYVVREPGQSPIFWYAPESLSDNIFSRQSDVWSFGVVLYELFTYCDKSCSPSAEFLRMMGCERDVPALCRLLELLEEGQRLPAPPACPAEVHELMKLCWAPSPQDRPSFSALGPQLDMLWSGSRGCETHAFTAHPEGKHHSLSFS
Put plainly: Cell-free kinase assay JAK3. Format: biochemical. The note with it: structure-activity statement. As to the method: The cell-free kinase assays of small molecules were determined by following the manufacturer-recommended protocols. Different concentrations in triplicate were used to determine the IC50 value of the hit molecules (active molecules). For data analysis, GraphPad Prism V9.5 Software and a sigmoidal dose–response (variable slope) equation were used. Each value represents an average of three replicates per concentration.

The test system of experiment [2] is HCT-116. Nature of the experiment: MTT cell viability assay HCT-116. Format: cell-based, human. The note with it: 48 h. As to the method:
(§1) Cell viability was evaluated using an MTT colorimetric assay. Cells were seeded (10^5 cells/mL) in 96-well plates and allowed to grow overnight at 37 ℃ with 5% CO2 in a cell-culture incubator. On the following day, the cells were treated with small molecules at different concentrations (0.2–10 micro-molar) or vehicle (DMSO). Cells were then further incubated for 48 h.
A general note: Tetrazolium dyes change colour on reduction, which living cells bring about.

Experiment [3] deals with HEK-293. Put plainly: MTT cell viability assay HEK-293. It counts as cell-based, human. The note with it: read-out: IC50 HEK-293; MTT, 48 h; normal cell line. As to the method:
as §1

In experiment [4] the test system is Panc-2. Nature of the experiment: MTT cell viability assay Panc-2. Format: cell-based. The conditions noted are these: 48 h. As to the method:
as §1

The subject of experiment [5] is MCF-7. Put plainly: MTT cell viability assay MCF-7. Format: cell-based, human. The note with it: 48 h. As to the method: as §1
In experiment [6] the test system is A549. Nature of the experiment: MTT cell viability assay A549. Format: cell-based, human. The conditions noted are these: 48 h. As to the method:
as §1

Experiment [7] deals with Mia PaCa-2. Put plainly: MTT cell viability assay Mia PaCa-2. Format: cell-based, human. The conditions noted are these: 48 h. As to the method: as §1

As to `c1coc(-c2cnc3[nH]cc(-c4ccnc(NC5CC5)n4)c3c2)c1` [MJ01], in experiment [1], the “inhibitory activity against JAK3 in kinase assays and in MTT assays” value (“inhibitory activity against JAK3” below) is “significant inhibitory activity”. The pIC50 is 5.72 in experiment [2]; under 4.00 in experiment [3]; 5.50 in experiment [4]; 5.78 in experiment [5]; 6.33 in experiment [6]; 5.08 in experiment [7].

Consider `CSc1ccc(-c2cnc3[nH]cc(-c4ccnc(NC5CC5)n4)c3c2)cc1` [MJ02], for which the “inhibitory activity against JAK3” value in experiment [1] is given as “significant inhibitory activity”. Also, the pIC50 in experiment [2] was 5.51; in experiment [3] it was under 4.00; in experiment [4] it was 5.33; in experiment [5] it was 5.74; in experiment [6], 5.50; in experiment [7], 5.15.

Consider `CSc1ccccc1-c1cnc2[nH]cc(-c3ccnc(NC4CC4)n3)c2c1` [MJ03], for which the “inhibitory activity against JAK3” value in experiment [1] is “significant inhibitory activity”. Besides, the pIC50 in experiment [2] was 5.09; in experiment [3] it was under 4.00; in experiment [4] it was 4.96; in experiment [5], 4.99; in experiment [6] it was 5.54; in experiment [7] it was 4.74.

For `Clc1ccc(-c2cnc3[nH]cc(-c4ccnc(NC5CC5)n4)c3c2)cc1` [MJ05], the “inhibitory activity against JAK3” value in experiment [1] is on record as “significant inhibitory activity”. Also, the pIC50 is 5.06 in experiment [2]; under 4.00 in experiment [3]; 5.11 in experiment [4]; 5.35 in experiment [5]; 5.43 in experiment [6]; 5.18 in experiment [7].

With `Fc1cccc(-c2cnc3[nH]cc(-c4ccnc(NC5CC5)n4)c3c2)c1` [MJ06], the “inhibitory activity against JAK3” value in experiment [1] is recorded as “significant inhibitory activity”. The pIC50 in experiment [2] is 5.82; in experiment [3], under 4.00; in experiment [4], 5.13; in experiment [5], 5.48; in experiment [6], 5.37; in experiment [7] it was 5.44.

Consider `Nc1nccc(-c2c[nH]c3ncc(-c4cccc(F)c4)cc23)n1` [MJ07], for which the “inhibitory activity against JAK3” value in experiment [1] is listed as “less active”. For the same compound, the pIC50 is 5.20 in experiment [2]; under 4.00 in experiment [3]; 5.51 in experiment [4]; 5.86 in experiment [5]; 5.26 in experiment [6]; 5.49 in experiment [7].

Consider `Nc1nccc(-c2c[nH]c3ncc(-c4cccc(C(F)(F)F)c4)cc23)n1` [MJ08], for which, in experiment [1], the “inhibitory activity against JAK3” value is recorded as “less active”. Also, the pIC50 is 5.93 in experiment [2]; under 4.00 in experiment [3]; 4.71 in experiment [4]; 5.16 in experiment [5]; 5.29 in experiment [6]; 5.27 in experiment [7].

Take `c1cncc(-c2cnc3[nH]cc(-c4ccnc(NCCN5CCOCC5)n4)c3c2)c1` [MJ09]: the “inhibitory activity against JAK3” value in experiment [1] is “significant inhibitory activity”. For the same compound, the pIC50 was 5.49 in experiment [2]; under 4.00 in experiment [3]; 4.58 in experiment [4]; 4.94 in experiment [5]; 5.24 in experiment [6]; 5.67 in experiment [7].

`Fc1ccc(-c2cnc3[nH]cc(-c4ccnc(NCCN5CCOCC5)n4)c3c2)cc1` [MJ10]: the “inhibitory activity against JAK3” value in experiment [1] is given as “significant inhibitory activity”. Moreover, the pIC50 was 5.27 in experiment [2]; under 4.00 in experiment [3]; 4.47 in experiment [4]; 5.06 in experiment [5]; 5.16 in experiment [6]; 5.17 in experiment [7].

What is called pIC50 is the negative decadic logarithm of the IC50, by convention in mol/L.
